# Patent US8778951B2, “Heteroaryl compounds and their uses” (Novartis AG, priority 2009, dated 2014)
# Molecular target: Cdk9/cyclinT1 (Homo sapiens (Human), UniProt P50750)
# Assay: Cdk9/CyclinT1 IMAP Protocol (fluorescence polarization kinase assay)
# Type: biochemical
# Settings: Table 2; generated using one of the two Cdk9/cyclinT1 assays (IMAP or Alpha Screen), not specified which; unit inferred
# Protocol: Cdk9/CyclinT1 IMAP Protocol
# The biological activity of the compounds of the invention can be determined using the assay described below.
# Cdk9/cyclinT1 is purchased from Millipore, cat #14-685. The final total protein concentration in the assay 4 nM. […] The final concentration of peptide substrate is 100 nM. The ATP substrate (Adenosine-5′-triphosphate) is purchased from Roche Diagnostics, cat#1140965. The final concentration of ATP substrate is 6 uM. IMAP (Immobilized Metal Assay for Phosphochemicals) Progressive Binding reagent is purchased from Molecular Devices, cat#R8139. Fluorescence polarization (FP) is used for detection. The 5TAMRA-cdk7tide peptide is phosphorylated by Cdk9/cyclinT1 kinase using the ATP substrate. The Phospho-5TAMRA-cdk7tide peptide substrate is bound to the IMAP Progressive Binding Reagent. The binding of the IMAP Progressive Binding Reagent changes the fluorescence polarization of the 5TAMRA-cdk7tide peptide which is measured at an excitation of 531 nm and FP emission of 595 nm. Assays are carried out in 100 mM Tris, pH=7.2, mM MgCl2, 0.05% NaN3, 0.01% Tween-20, 1 mM dithiothreitol and 2.5% dimethyl sulfoxide. IMAP Progressive Binding Reagent is diluted 1:800 in 100% 1× Solution A from Molecular Devices, cat#R7285.
# General protocol is as follows: To 10 ul of cdk9/cyclinT1, 0.5 ul of test compound in dimethyl sulfoxide is added. 5TAMRA-cdk7tide and ATP are mixed. 10 ul of the 5TAMRA-cdk7tide/ATP mix is added to start the reaction. The reaction is allowed to proceed for 4.5 hrs. 60 uL of IMAP Progressive Binding Reagent is added. After >1 hr of incubation, plates are read on the Envision 2101 from Perkin-Elmer. The assay is run in a 384-well format using black Corning plates, cat#3573.
# Cdk9/cyclinT1, sequence (P50750 whole entry): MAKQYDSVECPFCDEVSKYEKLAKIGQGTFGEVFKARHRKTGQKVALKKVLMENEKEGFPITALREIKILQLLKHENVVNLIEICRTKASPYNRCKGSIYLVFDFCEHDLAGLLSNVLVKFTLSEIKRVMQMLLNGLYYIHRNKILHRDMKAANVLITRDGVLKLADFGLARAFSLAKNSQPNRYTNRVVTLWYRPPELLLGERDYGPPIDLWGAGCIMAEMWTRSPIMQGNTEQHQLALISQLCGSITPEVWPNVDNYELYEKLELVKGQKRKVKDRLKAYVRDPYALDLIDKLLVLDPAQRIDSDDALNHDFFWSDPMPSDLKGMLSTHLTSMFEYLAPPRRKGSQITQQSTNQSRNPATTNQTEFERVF
# Cdk9/cyclinT1, sequence (O60563 whole entry partner): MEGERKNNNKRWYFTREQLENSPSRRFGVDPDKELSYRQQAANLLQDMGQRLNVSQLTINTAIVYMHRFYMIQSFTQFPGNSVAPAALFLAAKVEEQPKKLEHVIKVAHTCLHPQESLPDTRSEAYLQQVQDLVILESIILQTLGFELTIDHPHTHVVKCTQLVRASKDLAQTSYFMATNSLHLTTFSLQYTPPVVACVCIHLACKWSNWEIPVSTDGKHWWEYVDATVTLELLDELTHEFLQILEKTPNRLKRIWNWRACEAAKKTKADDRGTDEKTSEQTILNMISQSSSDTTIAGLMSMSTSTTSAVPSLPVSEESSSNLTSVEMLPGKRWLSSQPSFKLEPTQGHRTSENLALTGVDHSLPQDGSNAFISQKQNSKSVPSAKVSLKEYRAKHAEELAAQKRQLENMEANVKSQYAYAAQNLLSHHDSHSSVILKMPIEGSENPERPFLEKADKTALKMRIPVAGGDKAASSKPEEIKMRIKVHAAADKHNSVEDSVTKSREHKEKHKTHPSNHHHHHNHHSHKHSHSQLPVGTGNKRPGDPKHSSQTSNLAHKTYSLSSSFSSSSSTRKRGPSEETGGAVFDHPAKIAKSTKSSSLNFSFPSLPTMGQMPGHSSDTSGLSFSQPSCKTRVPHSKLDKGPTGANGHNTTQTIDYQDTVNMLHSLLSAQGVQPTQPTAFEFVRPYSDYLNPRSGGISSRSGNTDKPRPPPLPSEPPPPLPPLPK
row,SMILES,IC50 [nM]
1,"COCCN[C@H]1CC[C@H](Nc2cc(-c3nc(NCC4CCOCC4)ccc3Br)c(Cl)cn2)CC1 [Compound 292, 3-bromo-5′-chloro-N2′-(trans-4-(2-methoxyethylamino)cyclohexyl)-N6-((tetrahydro-2H-pyran-4-yl)methyl)-2,4′-bipyridine-2′,6-diamine]",2
2,COCCN[C@H]1CC[C@H](Nc2cc(-c3ccc(F)c(NCC4(C#N)CCOCC4)n3)c(Cl)cn2)CC1 [Compound 339],0.17
3,Clc1cnc(N[C@@H]2CCCNC2)cc1-c1cccc(NCC2CCOCC2)n1 [Compound 90],2960
4,N[C@H]1CC[C@H](Nc2cc(-c3cccc(NCc4ccc(C(F)(F)F)cc4)n3)c(Cl)cn2)CC1 [Compound 52],19.2
5,Fc1cccc(CNc2cccc(-c3cc(NCC4CCNCC4)ncc3Cl)n2)c1 [Compound 162],14
6,N[C@H]1CC[C@H](Nc2cc(-c3cccc(NCc4ccccc4)n3)ccn2)CC1 [Compound 31],44.8
7,Fc1cccc(CNc2cccc(-c3cc(N[C@@H]4CCCOC4)ncc3Cl)n2)c1 [Compound 148],15600
8,"CN[C@H]1CC[C@H](Nc2cc(-c3cccc(NCc4cccc(F)c4)n3)c(Cl)cn2)CC1 [Compound 21, 5′-chloro-N6-(3-fluorobenzyl)-N2′-(trans-4-(methylamino)cyclohexyl)-2,4′-bipyridine-2′,6-diamine]",7.95
9,Fc1ccc(-c2cc(N[C@H]3CC[C@H](NC4COC4)CC3)ncc2Cl)nc1NCC1CCOCC1 [Compound 281],61.2
10,N#CC1(CNc2nc(-c3cc(N[C@H]4CC[C@H](N)CC4)ncc3Cl)ccc2F)CCOCC1 [Compound 341],0.15
11,OCCNc1cc(-c2cncc(NCC3CCOCC3)n2)c(Cl)cn1 [Compound 210],86
12,O[C@H]1CC[C@H](Nc2cc(-c3cccc(NCC4CCOCC4)n3)c(Cl)cn2)CC1 [Compound 126],33.3
13,CN1CCN([C@H]2CC[C@H](Nc3cc(-c4cccc(NCc5cccc(F)c5)n4)c(Cl)cn3)CC2)CC1 [Compound 158],11
14,NC[C@H]1CC[C@H](Nc2cc(-c3cccc(NCc4cncc(F)c4)n3)c(Cl)cn2)CC1 [Compound 59],9.13
15,CC(=O)N1CCC[C@@H](CNc2cccc(-c3cc(N[C@H]4CC[C@H](N)CC4)ncc3Cl)n2)C1 [Compound 217],37.3
16,"CN(C)[C@H]1CC[C@H](Nc2cc(-c3cccc(NCC4(C#N)CCOCC4)n3)c(Cl)cn2)CC1 [Compound 361, 4-((5′-chloro-2′-((1r,4r)-4-(dimethylamino)cyclohexylamino)-2,4′-bipyridin-6-ylamino)methyl)tetrahydro-2H-pyran-4-carbonitrile]",0.3

row,SMILES,IC50 [nM]
1,Clc1cnc(NC2CCNCC2)cc1-c1cccc(NCC2CCCCC2)n1 [Compound 68],274
2,OC[C@H]1CC[C@H](Nc2cc(-c3cccc(NCc4cccc(F)c4)n3)c(Cl)cn2)CC1 [Compound 181],7.94
3,NC[C@H]1CC[C@H](Nc2cc(-c3cccc(NCc4cccc(Cl)c4)n3)c(Cl)cn2)CC1 [Compound 62],7.95
4,"CC(=O)N[C@H]1CC[C@H](Nc2cc(-c3cncc(NCC4CCOCC4)n3)c(Cl)cn2)CC1 [Compound 244, N-(trans-4-(5-chloro-4-(6-((tetrahydro-2H-pyran-4-yl)methyl)aminopyrazin-2-yl)pyridin-2-yl-amino)cyclohexyl)acetamide]",79
5,"N#CC1(CNc2cccc(-c3cc(N[C@H]4CC[C@H](O)CC4)ncc3Cl)n2)CCOCC1 [Compound 359, 4-((5′-chloro-2′-((1r,4r)-4-hydroxycyclohexylamino)-2,4′-bipyridin-6-ylamino)methyl)tetrahydro-2H-pyran-4-carbonitrile]",0.24
6,"COCCN[C@H]1CC[C@H](Nc2cc(-c3cccc(NCC4C[C@@H](C)O[C@@H](C)C4)n3)c(Cl)cn2)CC1 (stereo partly drawn) [Compound 285, 5′-chloro-N6-(((2R,6S)-2,6-dimethyltetrahydro-2H-pyran-4-yl)methyl)-N2′-(trans-4-(2-methoxyethylamino)cyclohexyl)-2,4′-bipyridine-2′,6-diamine]",2
7,NC[C@H]1CC[C@H](Nc2cc(-c3cccc(NCc4cccnc4)n3)c(Cl)cn2)CC1 [Compound 58],31.2
8,Fc1cccc(CNc2cccc(-c3cc(N[C@H]4CC[C@H](N5CCCCC5)CC4)ncc3Cl)n2)c1 [Compound 115],7.95
9,O=C(NC[C@H]1CC[C@H](Nc2cc(-c3cccc(NCc4cccc(F)c4)n3)c(Cl)cn2)CC1)c1cccnc1 [Compound 84],14.1
10,"N[C@H]1CC[C@H](Nc2cc(-c3nc(NCC4CCOCC4)ccc3Br)c(Cl)cn2)CC1 [Compound 286, N2′-(trans-4-aminocyclohexyl)-3-bromo-5′-chloro-N6-((tetrahydro-2H-pyran-4-yl)methyl)-2,4′-bipyridine-2′,6-diamine]",1
11,CN(CC1CCOCC1)c1cccc(-c2cc(N[C@H]3CC[C@H](N)CC3)ncc2Cl)n1 [Compound 108],7.95
12,N[C@H]1CC[C@H](Nc2cc(-c3cccc(NCc4ccncc4)n3)ccn2)CC1 [Compound 33],27
13,Fc1cccc(CNc2cccc(-c3cc(NC4CCOCC4)ncc3Cl)n2)c1 [Compound 142],25.6
14,OCCCNc1cc(-c2cccc(NCc3cc(F)cc(F)c3)n2)c(Cl)cn1 [Compound 189],7.94
15,CCCCNc1cc(-c2cccc(NCc3cccc(F)c3)n2)c(Cl)cn1 [Compound 173],62

# More lines, now with the values ahead:
row,IC50 [nM],SMILES
1,205,Fc1cccc(CNc2cccc(-c3cc(NC4CCCCC4)ncc3Cl)n2)c1 [Compound 141]
2,470,O[C@H]1CC[C@H](Nc2cc(-c3cccc(N4CCOCC4)n3)c(Cl)cn2)CC1 [Compound 131]
3,7.95,"N[C@H]1CC[C@H](Nc2cc(-c3cccc(NCc4cccc(F)c4)n3)c(Cl)cn2)CC1 [Compound 1, N2′-(trans-4-aminocyclohexyl)-5′-chloro-N6-(3-fluorobenzyl)-2,4′-bipyridine-2′,6-diamine]"
4,7.94,OCCCN[C@H]1CC[C@H](Nc2cc(-c3cccc(NCc4cccc(F)c4)n3)c(Cl)cn2)CC1 [Compound 200]
5,1,CC1(CNc2nc(-c3cc(NC4CCC(NC5CS(=O)(=O)C5)CC4)ncc3Cl)ccc2F)CCOCC1 (stereo not shown) [Compound 347]
6,3,O=S1(=O)CCC(N[C@H]2CC[C@H](Nc3cc(-c4ccc(F)c(NCC5CCOCC5)n4)c(Cl)cn3)CC2)C1 (stereo partly shown) [Compound 322]
7,15,N[C@H]1CC[C@H](Nc2cc(-c3cccc(NCc4cccc(F)c4)n3)ccn2)CC1 [Compound 32]
8,61.8,"CCc1ncc(-c2cc(N[C@H]3CC[C@H](N)CC3)ncc2Cl)nc1NCC1CCOCC1 [Compound 241, trans-N^1-(5-chloro-4-(5-ethyl-6-((tetrahydro-2H-pyran-4-yl)methyl)aminopyrazin-2-yl)pyridin-2-yl)cyclohexane-1,4-diamine]"
9,13.5,N[C@H]1CC[C@H](Nc2cc(-c3cccc(NCC4CCCCCC4)n3)c(Cl)cn2)CC1 [Compound 75]
10,9.11,O[C@@H]1CC[C@H](Nc2cc(-c3cccc(NCc4cccc(F)c4)n3)c(Cl)cn2)C1 [Compound 184]
11,134,CN1CCC(Nc2cc(-c3cccc(NCc4cccc(F)c4)n3)c(Cl)cn2)CC1 [Compound 103]
12,27,C[C@H]1C[C@@H](Nc2cc(-c3cccc(NCc4cccc(F)c4)n3)c(Cl)cn2)CC[C@@H]1N (stereo in doubt) [Compound 152]
13,121,CC(C)CN1CCC(Nc2cc(-c3cccc(NCc4cccc(F)c4)n3)c(Cl)cn2)CC1 [Compound 102]
14,7.95,CCS(=O)(=O)NC[C@H]1CC[C@H](Nc2cc(-c3cccc(NCc4cccc(F)c4)n3)c(Cl)cn2)CC1 [Compound 79]
15,17.1,NC[C@H]1CC[C@H](Nc2cc(-c3cccc(NCc4ccc(F)cc4)n3)c(Cl)cn2)CC1 [Compound 66]
16,7.95,"NC[C@H]1CC[C@H](Nc2cc(-c3cccc(OCc4cccc(F)c4)n3)c(Cl)cn2)CC1 [Compound 9, N-(trans-4-(aminomethyl)cyclohexyl)-5′-chloro-6-(3-fluorobenzyloxy)-2,4′-bipyridin-2′-amine]"
17,43.2,CN(CC1CCOCC1)c1cncc(-c2cc(N[C@H]3CC[C@H](CO)CC3)ncc2Cl)n1 [Compound 251]
18,7.95,N[C@H]1CC[C@H](Nc2cc(-c3cnc(Cl)c(NCC4CCOCC4)n3)c(Cl)cn2)CC1 [Compound 221]
19,138,"CC(=O)N1CCC[C@H](CNc2cccc(-c3ccnc(N[C@H]4CC[C@H](N)CC4)c3)n2)C1 [Compound 216, 1-((R)-3-((2′-(trans-4-aminocyclohexylamino)-2,4′-bipyridin-6-yl-amino)methyl)piperidin-1-yl)ethanone]"
20,15.8,Nc1ncc(CNc2cccc(-c3cc(N[C@H]4CC[C@H](N)CC4)ncc3Cl)n2)cn1 [Compound 109]
21,12.9,N[C@H]1CC[C@H](Nc2cc(-c3cccc(NCc4ccccc4F)n3)c(Cl)cn2)CC1 [Compound 41]
